Legend:
SLA-1*04:01 = assay: Peptide-MHC class I complex stability, scintillation proximity assay (SPA); parameters: species or system pig; settings: biotinylated recombinant SLA heavy chain, 125I-β2m, excess unlabeled β2m, read every 40 min, number only if t1/2 ≥ 0.5 h, '-' = not stably binding
Method in brief: (§1)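 Biotinylated recombinant heavy chains captured on streptavidin scintillation plates with 125I-β2m and peptide; signal read every 40 min under dissociating conditions with excess unlabeled β2m. Signal duration gives complex half-life; ≥ 0.5 h counted as stable binder.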

SLA-1*07:02 = assay: as above; parameters: species or system pig; settings: biotinylated recombinant SLA heavy chain, 125I-β2m, excess unlabeled β2m, read every 40 min, number only if t1/2 ≥ 0.5 h, '-' = not stably binding
Method in brief: as §1

PBMCs = assay: In vitro peptide stimulation of porcine PBMCs, IFN-γ release assay (ELISA); assay type: cell-based, pig; parameters: key to T cell response: “x” indicates that a response was found to this given peptide at least once; settings: PBMCs of immunized pigs, 2 × 10^5/well, 5 μg/ml peptide, 67.5–70.0 h, IFN-γ ELISA; response = 2-fold increase vs day -2 and at least 25 pg/ml IFN-γ, found at least once; SLA restriction not included
SLA-2*04:01 = assay: Peptide-MHC class I complex stability, scintillation proximity assay (SPA); parameters: species or system pig; settings: biotinylated recombinant SLA heavy chain, 125I-β2m, excess unlabeled β2m, read every 40 min, number only if t1/2 ≥ 0.5 h, '-' = not stably binding
Method in brief: as §1

SLA-3*04:01 = assay: as above; parameters: species or system pig; settings: biotinylated recombinant SLA heavy chain, 125I-β2m, excess unlabeled β2m, read every 40 min, number only if t1/2 ≥ 0.5 h, '-' = not stably binding
Method in brief: as §1

Row | Sequence | Binder (t1/2 ≥ 0.5 h): half-life of peptide-SLA-1*04:01 complex (SLA-1*04:01) | Binder (t1/2 ≥ 0.5 h): half-life of peptide-SLA-1*07:02 complex (SLA-1*07:02) | also measured
1 | AIAKNLPEL [IDO2, porcine IDO-derived 9-11mer peptide] | - (t1/2 (hours) is listed for each of the stably binding peptides (t1/2 ≥ 0.5 h)) |  | 
2 | ALEVFHQIHEY [IDO4, porcine IDO-derived 9-11mer peptide] | - (t1/2 (hours) is listed for each of the stably binding peptides (t1/2 ≥ 0.5 h)) |  | 
3 | CPNVPIILV [RhoC5, porcine RhoC-derived 9-11mer peptide] |  | 0.7 h | T cell response (PBMCs): x
4 | DMANRISAFGY [RhoC8, porcine RhoC-derived 9-11mer peptide] |  | - (t1/2 (hours) is listed for each of the stably binding peptides (t1/2 ≥ 0.5 h)) | Binder (t1/2 ≥ 0.5 h): half-life of peptide-SLA-2*04:01 complex (SLA-2*04:01): 1.1 h; T cell response (PBMCs): x
5 | DPSGPMTYKNM [IDO12, porcine IDO-derived 9-11mer peptide] |  | 0.5 h | T cell response (PBMCs): x
6 | DTDVILMCF [RhoC10, porcine RhoC-derived 9-11mer peptide] | 1.3 h |  | 
7 | DYDRLRPLSY [RhoC13, porcine RhoC-derived 9-11mer peptide] | - (t1/2 (hours) is listed for each of the stably binding peptides (t1/2 ≥ 0.5 h)) |  | 
8 | EVDGKQVEL [RhoC21, porcine RhoC-derived 9-11mer peptide] | - (t1/2 (hours) is listed for each of the stably binding peptides (t1/2 ≥ 0.5 h)) |  | 
9 | EVDGKQVELAL [RhoC22, porcine RhoC-derived 9-11mer peptide] | 0.6 h |  | 
10 | EVFHQIHEY [IDO21, porcine IDO-derived 9-11mer peptide] |  | 10.1 h | Binder (t1/2 ≥ 0.5 h): half-life of peptide-SLA-2*04:01 complex (SLA-2*04:01): 23.8 h; T cell response (PBMCs): x
11 | EVYVPTVFENY [RhoC25, porcine RhoC-derived 9-11mer peptide] |  | 4.4 h | Binder (t1/2 ≥ 0.5 h): half-life of peptide-SLA-2*04:01 complex (SLA-2*04:01): 0.6 h
12 | GVPSGSAAGF [IDO34, porcine IDO-derived 9-11mer peptide] | - (t1/2 (hours) is listed for each of the stably binding peptides (t1/2 ≥ 0.5 h)) |  | 
13 | HIDEDLGFAL [IDO35, porcine IDO-derived 9-11mer peptide] | - (t1/2 (hours) is listed for each of the stably binding peptides (t1/2 ≥ 0.5 h)) |  | 
14 | KKDPSGPMTY [IDO51, porcine IDO-derived 9-11mer peptide] | - (t1/2 (hours) is listed for each of the stably binding peptides (t1/2 ≥ 0.5 h)) |  | 
15 | KLFFNVLRIY [IDO53, porcine IDO-derived 9-11mer peptide] |  | - (t1/2 (hours) is listed for each of the stably binding peptides (t1/2 ≥ 0.5 h)) | Binder (t1/2 ≥ 0.5 h): half-life of peptide-SLA-3*04:01 complex (SLA-3*04:01): - (t1/2 (hours) is listed for each of the stably binding peptides (t1/2 ≥ 0.5 h))
16 | LGLPPILVY [IDO65, porcine IDO-derived 9-11mer peptide] |  | - (t1/2 (hours) is listed for each of the stably binding peptides (t1/2 ≥ 0.5 h)) | Binder (t1/2 ≥ 0.5 h): half-life of peptide-SLA-2*04:01 complex (SLA-2*04:01): - (t1/2 (hours) is listed for each of the stably binding peptides (t1/2 ≥ 0.5 h))
17 | LPRNIAIPY [IDO70, porcine IDO-derived 9-11mer peptide] |  | 1.0 h | T cell response (PBMCs): x
18 | LVLGYITMAY [IDO73, porcine IDO-derived 9-11mer peptide] |  | 4.0 h | Binder (t1/2 ≥ 0.5 h): half-life of peptide-SLA-2*04:01 complex (SLA-2*04:01): 0.8 h
19 | LWDTAGQEDY [RhoC38, porcine RhoC-derived 9-11mer peptide] | - (t1/2 (hours) is listed for each of the stably binding peptides (t1/2 ≥ 0.5 h)) |  | 
20 | MALDWWSPM [IDO75, porcine IDO-derived 9-11mer peptide] |  | 0.5 h | Binder (t1/2 ≥ 0.5 h): half-life of peptide-SLA-3*04:01 complex (SLA-3*04:01): - (t1/2 (hours) is listed for each of the stably binding peptides (t1/2 ≥ 0.5 h)); T cell response (PBMCs): x
21 | MQRLAHLVLGY [IDO79, porcine IDO-derived 9-11mer peptide] |  | - (t1/2 (hours) is listed for each of the stably binding peptides (t1/2 ≥ 0.5 h)) | Binder (t1/2 ≥ 0.5 h): half-life of peptide-SLA-3*04:01 complex (SLA-3*04:01): - (t1/2 (hours) is listed for each of the stably binding peptides (t1/2 ≥ 0.5 h)); Binder (t1/2 ≥ 0.5 h): half-life of peptide-SLA-2*04:01 complex (SLA-2*04:01): - (t1/2 (hours) is listed for each of the stably binding peptides (t1/2 ≥ 0.5 h))
22 | MVSLRNYHL [IDO83, porcine IDO-derived 9-11mer peptide] | - (t1/2 (hours) is listed for each of the stably binding peptides (t1/2 ≥ 0.5 h)) |  | 

Row | Sequence | Binder (t1/2 ≥ 0.5 h): half-life of peptide-SLA-1*04:01 complex (SLA-1*04:01) | Binder (t1/2 ≥ 0.5 h): half-life of peptide-SLA-1*07:02 complex (SLA-1*07:02) | also measured
23 | NPLLSEGLLY [IDO88, porcine IDO-derived 9-11mer peptide] |  | 24.0 h | T cell response (PBMCs): x
24 | NSWKIFEEY [IDO89, porcine IDO-derived 9-11mer peptide] |  | - (t1/2 (hours) is listed for each of the stably binding peptides (t1/2 ≥ 0.5 h)) | Binder (t1/2 ≥ 0.5 h): half-life of peptide-SLA-2*04:01 complex (SLA-2*04:01): 0.7 h
25 | PLEELPHPY [IDO94, porcine IDO-derived 9-11mer peptide] | - (t1/2 (hours) is listed for each of the stably binding peptides (t1/2 ≥ 0.5 h)) |  | 
26 | PMDNSWKIF [IDO96, porcine IDO-derived 9-11mer peptide] | 0.7 h |  | 
27 | PPAHRNFLH [IDO97, porcine IDO-derived 9-11mer peptide] |  | 1.1 h | T cell response (PBMCs): x
28 | PPAHRNFLHSL [IDO98, porcine IDO-derived 9-11mer peptide] |  | 0.7 h | T cell response (PBMCs): x
29 | PPILVYADCV [IDO99, porcine IDO-derived 9-11mer peptide] |  | 3.5 h | T cell response (PBMCs): x
30 | QAMVSLRNY [IDO100, porcine IDO-derived 9-11mer peptide] |  | - (t1/2 (hours) is listed for each of the stably binding peptides (t1/2 ≥ 0.5 h)) | 
31 | RGTGGTNVIDF [IDO103, porcine IDO-derived 9-11mer peptide] | - (t1/2 (hours) is listed for each of the stably binding peptides (t1/2 ≥ 0.5 h)) |  | 
32 | RISAFGYLE [RhoC43, porcine RhoC-derived 9-11mer peptide] | - (t1/2 (hours) is listed for each of the stably binding peptides (t1/2 ≥ 0.5 h)) |  | 
33 | RPLSYPDTDV [RhoC46, porcine RhoC-derived 9-11mer peptide] |  | - (t1/2 (hours) is listed for each of the stably binding peptides (t1/2 ≥ 0.5 h)) | 
34 | SIDGLQGHKM [IDO115, porcine IDO-derived 9-11mer peptide] | - (t1/2 (hours) is listed for each of the stably binding peptides (t1/2 ≥ 0.5 h)) |  | 
35 | SIDSPDSLENI [RhoC47, porcine RhoC-derived 9-11mer peptide] | - (t1/2 (hours) is listed for each of the stably binding peptides (t1/2 ≥ 0.5 h)) |  | 
36 | SLENIPEKWTP [RhoC50, porcine RhoC-derived 9-11mer peptide] | - (t1/2 (hours) is listed for each of the stably binding peptides (t1/2 ≥ 0.5 h)) |  | 
37 | SPMDNSWKI [IDO119, porcine IDO-derived 9-11mer peptide] |  | 1.9 h | T cell response (PBMCs): x
38 | SPMDNSWKIF [IDO120, porcine IDO-derived 9-11mer peptide] |  | 2.6 h | T cell response (PBMCs): x
39 | VPSGSAAGF [IDO128, porcine IDO-derived 9-11mer peptide] |  | - (t1/2 (hours) is listed for each of the stably binding peptides (t1/2 ≥ 0.5 h)) | Binder (t1/2 ≥ 0.5 h): half-life of peptide-SLA-2*04:01 complex (SLA-2*04:01): - (t1/2 (hours) is listed for each of the stably binding peptides (t1/2 ≥ 0.5 h))
40 | YHLQIVTKY [IDO134, porcine IDO-derived 9-11mer peptide] |  | - (t1/2 (hours) is listed for each of the stably binding peptides (t1/2 ≥ 0.5 h)) | Binder (t1/2 ≥ 0.5 h): half-life of peptide-SLA-2*04:01 complex (SLA-2*04:01): - (t1/2 (hours) is listed for each of the stably binding peptides (t1/2 ≥ 0.5 h))
41 | YPDTDVILM [RhoC58, porcine RhoC-derived 9-11mer peptide] |  | 1.2 h | T cell response (PBMCs): x
42 | YVDPKLFFNV [IDO135, porcine IDO-derived 9-11mer peptide] | - (t1/2 (hours) is listed for each of the stably binding peptides (t1/2 ≥ 0.5 h)) |  | 
43 | YVDPKLFFNVL [IDO136, porcine IDO-derived 9-11mer peptide] | - (t1/2 (hours) is listed for each of the stably binding peptides (t1/2 ≥ 0.5 h)) |  | 
44 | YVPTVFENY [RhoC60, porcine RhoC-derived 9-11mer peptide] |  | - (t1/2 (hours) is listed for each of the stably binding peptides (t1/2 ≥ 0.5 h)) | Binder (t1/2 ≥ 0.5 h): half-life of peptide-SLA-2*04:01 complex (SLA-2*04:01): - (t1/2 (hours) is listed for each of the stably binding peptides (t1/2 ≥ 0.5 h))

Reference: paper PMC4584933, “Establishing the pig as a large animal model for vaccine development against human cancer” (Frontiers in Genetics, 2015)
